# Experimental data as given in ChEMBL document CHEMBL1201862, “PubChem BioAssay data set” (2004).
# Calls of active or inactive are those of the source. Rule as the data show it, for most assays here: actives have a measured EC50 and inactives only a lower limit.
# Experiments:
# [1] = Luminescence Cell-Based Dose Response HTS to Identify Activators of Luciferase Translation or Activity in H4 […] Cells. [Related pubchem assays: 1829 (Project Summary), 1814 (Primary HTS)]; format: functional
# [2] = Luminescence Cell-Based Dose Confirmation HTS to Identify Activators of 5'UTR Stem-Loop Driven Alpha-Synuclein mRNA Translation in H4 Neuroglioblastoma Cells. [Related pubchem assays: 1829 (Project Summary), 1814 (Primary HTS)]; format: functional
# [3] = tested on: H4; experiment: Luminescence Cell-Based Dose Response HTS to Identify Activators of 5'UTR Stem-Loop Driven Prion Protein mRNA Translation in H4 Neuroglioblastoma Cells. [Related pubchem assays: 1829 (Project Summary), 1814 (Primary HTS)]; format: functional; conditions: Homo sapiens
# [4] = biological target: Peroxisome proliferator-activated receptor gamma/Nuclear receptor coactivator 2 (Homo sapiens, UniProt P37231); format: functional;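 also: agonist potency for raising coactivator recruitment to the receptor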
# [5] = biological target: Peroxisome proliferator-activated receptor gamma/Nuclear receptor coactivator 1 (Homo sapiens, UniProt P37231); format: functional;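 also: agonist potency as compounds enhance coactivator SRC-1 recruitment to PPARgamma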
# [6] = biological target: Peroxisome proliferator-activated receptor gamma/Nuclear receptor coactivator 3 (Homo sapiens, UniProt P37231); format: functional;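 also: agonist potency for raising coactivator recruitment to the receptor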
# [7] = HEp-2 cell cytotoxicity, dose response, cytotoxicity control for RSV inhibitor project, HTS (AID 2410); format: functional; conditions: human respiratory syncytial virus
# [8] = biological target: T1, Replicative DNA helicase DnaB (Mycobacterium tuberculosis, UniProt P9WMR3); experiment: DnaB intein splicing inhibitors, dose response, biochemical, cell-free fluorescence (AID 449749); format: functional
# T1 sequence (P9WMR3 whole entry): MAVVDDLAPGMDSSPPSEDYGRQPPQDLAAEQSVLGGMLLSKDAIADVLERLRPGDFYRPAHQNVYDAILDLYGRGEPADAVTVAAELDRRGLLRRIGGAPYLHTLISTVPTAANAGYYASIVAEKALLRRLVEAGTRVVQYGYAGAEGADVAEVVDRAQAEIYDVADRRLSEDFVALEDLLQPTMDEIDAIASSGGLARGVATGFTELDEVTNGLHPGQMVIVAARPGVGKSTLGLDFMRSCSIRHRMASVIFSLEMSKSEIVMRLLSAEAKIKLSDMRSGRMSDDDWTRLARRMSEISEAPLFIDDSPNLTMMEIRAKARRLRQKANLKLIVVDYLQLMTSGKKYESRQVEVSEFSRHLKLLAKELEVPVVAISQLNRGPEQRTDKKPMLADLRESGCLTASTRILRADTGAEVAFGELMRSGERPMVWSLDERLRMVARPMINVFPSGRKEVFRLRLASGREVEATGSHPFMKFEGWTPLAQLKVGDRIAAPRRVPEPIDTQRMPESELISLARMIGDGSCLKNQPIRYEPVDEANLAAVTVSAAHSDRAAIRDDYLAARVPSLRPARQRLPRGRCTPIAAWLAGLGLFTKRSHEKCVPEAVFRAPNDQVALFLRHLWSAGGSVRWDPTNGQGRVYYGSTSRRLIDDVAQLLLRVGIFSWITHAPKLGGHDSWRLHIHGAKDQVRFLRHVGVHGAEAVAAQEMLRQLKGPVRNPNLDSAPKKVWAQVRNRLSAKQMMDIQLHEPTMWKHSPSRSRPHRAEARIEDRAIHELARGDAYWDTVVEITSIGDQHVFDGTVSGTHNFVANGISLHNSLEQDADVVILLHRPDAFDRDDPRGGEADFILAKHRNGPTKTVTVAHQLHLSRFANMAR
# [9] = biological target: T2, Protein RecA (Mycobacterium tuberculosis, UniProt P9WHJ3); experiment: Fluorescence Cell-Free Homogeneous Dose Retest to Identify Inhibitors of RecA-Intein Splicing Activity. [Related pubchem assays (depositor defined):AID2097, AID2223, AID489010, AID492950]; format: functional
# T2 sequence (P9WHJ3 whole entry): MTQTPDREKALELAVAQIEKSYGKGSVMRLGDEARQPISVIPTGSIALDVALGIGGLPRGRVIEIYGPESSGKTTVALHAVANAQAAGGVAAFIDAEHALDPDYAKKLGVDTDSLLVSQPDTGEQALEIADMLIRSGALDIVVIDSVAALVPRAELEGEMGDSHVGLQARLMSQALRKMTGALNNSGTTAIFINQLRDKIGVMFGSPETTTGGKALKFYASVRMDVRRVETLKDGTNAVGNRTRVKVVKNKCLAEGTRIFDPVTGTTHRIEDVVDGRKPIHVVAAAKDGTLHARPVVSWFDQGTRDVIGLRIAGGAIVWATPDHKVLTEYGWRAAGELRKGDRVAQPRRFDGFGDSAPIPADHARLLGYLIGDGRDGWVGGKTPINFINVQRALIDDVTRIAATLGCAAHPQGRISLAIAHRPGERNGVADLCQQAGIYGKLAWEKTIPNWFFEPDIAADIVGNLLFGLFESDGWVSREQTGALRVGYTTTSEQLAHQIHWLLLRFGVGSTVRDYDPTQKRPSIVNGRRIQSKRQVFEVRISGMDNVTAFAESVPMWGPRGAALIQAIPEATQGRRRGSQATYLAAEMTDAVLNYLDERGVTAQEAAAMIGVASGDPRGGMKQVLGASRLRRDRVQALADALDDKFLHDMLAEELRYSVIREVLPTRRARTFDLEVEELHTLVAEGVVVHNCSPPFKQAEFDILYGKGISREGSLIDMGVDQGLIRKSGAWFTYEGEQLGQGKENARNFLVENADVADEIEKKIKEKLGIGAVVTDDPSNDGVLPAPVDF
# [10] = biological target: T3, RNA-binding protein pos-1 (Caenorhabditis elegans, UniProt G5EF15); experiment: inhibitors of POS-1/mex-3 RNA binding, dose response, biochemical, fluorescence polarization (AID 1964);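 also: purified POS-1 fused to maltose binding protein made in E. coli; potency of compounds blocking POS-1 binding to fluorescent RNA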
# T3 sequence (G5EF15 whole entry): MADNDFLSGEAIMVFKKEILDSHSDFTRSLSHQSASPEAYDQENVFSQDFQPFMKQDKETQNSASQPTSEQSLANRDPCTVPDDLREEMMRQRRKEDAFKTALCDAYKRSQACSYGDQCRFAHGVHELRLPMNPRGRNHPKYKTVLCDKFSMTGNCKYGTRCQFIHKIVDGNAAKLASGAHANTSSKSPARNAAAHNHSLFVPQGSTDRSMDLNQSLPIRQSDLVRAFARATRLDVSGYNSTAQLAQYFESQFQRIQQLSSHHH
# [11] = biological target: T4, Zinc finger protein mex-5 (Caenorhabditis elegans, UniProt Q9XUB2); experiment: MEX-5/TCR-2 RNA interaction inhibitors, dose response, biochemical, C. elegans, fluorescence polarization (AID 1960)
# T4 sequence (Q9XUB2 whole entry): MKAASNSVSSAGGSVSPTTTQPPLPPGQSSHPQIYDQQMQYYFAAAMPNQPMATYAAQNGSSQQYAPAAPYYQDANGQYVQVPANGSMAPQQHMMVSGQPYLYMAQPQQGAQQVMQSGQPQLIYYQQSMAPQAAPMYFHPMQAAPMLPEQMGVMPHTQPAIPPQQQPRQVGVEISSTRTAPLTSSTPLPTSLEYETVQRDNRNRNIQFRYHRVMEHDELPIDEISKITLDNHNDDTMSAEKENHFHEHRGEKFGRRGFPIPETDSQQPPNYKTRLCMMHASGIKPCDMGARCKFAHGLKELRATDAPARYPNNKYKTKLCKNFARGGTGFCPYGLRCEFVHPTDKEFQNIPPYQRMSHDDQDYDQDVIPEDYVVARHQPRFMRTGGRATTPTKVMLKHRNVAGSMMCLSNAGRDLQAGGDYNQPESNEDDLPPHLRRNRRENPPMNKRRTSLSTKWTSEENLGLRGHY
# [12] = cytotoxicity toward NIH3T3 fibroblasts, dose response, counter-screen, cell-based, ATP luminescence, mouse fibroblasts (AID 2010); format: functional;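 also: cells exposed to compound for about 90 hours before reading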
# [13] = inhibitors of intracellular T. cruzi replication, confirmation, NIH3T3 host cells, beta-gal luminescence (AID 2044); format: functional, cell-based;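 also: intracellular parasites grown in NIH/3T3 mouse fibroblasts as host cells; luminescent beta-galactosidase reporter signal from transgenic T. cruzi replicating inside host cells; inhibitors lower the luminescence signal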
# [14] = growth suppression of beta-catenin-knockout colon cells, dose response, cell-based, HCT116, human colon tumor (AID 1045); format: functional;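 also: HCT116 colon tumor cells with beta catenin knocked out; cells exposed to compound for 60 hours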
# [15] = growth suppression of PTEN-null colon cells, dose response, cell-based, HCT116 PTEN knockout (AID 1047); format: functional;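 also: HCT116 colon tumor cells with PTEN knocked out; cells exposed to compound for 60 hours before readout; potency for loss of cell viability measured by luminescence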
# Chain of Peroxisome proliferator-activated receptor gamma/Nuclear receptor coactivator 3 (P37231 whole entry): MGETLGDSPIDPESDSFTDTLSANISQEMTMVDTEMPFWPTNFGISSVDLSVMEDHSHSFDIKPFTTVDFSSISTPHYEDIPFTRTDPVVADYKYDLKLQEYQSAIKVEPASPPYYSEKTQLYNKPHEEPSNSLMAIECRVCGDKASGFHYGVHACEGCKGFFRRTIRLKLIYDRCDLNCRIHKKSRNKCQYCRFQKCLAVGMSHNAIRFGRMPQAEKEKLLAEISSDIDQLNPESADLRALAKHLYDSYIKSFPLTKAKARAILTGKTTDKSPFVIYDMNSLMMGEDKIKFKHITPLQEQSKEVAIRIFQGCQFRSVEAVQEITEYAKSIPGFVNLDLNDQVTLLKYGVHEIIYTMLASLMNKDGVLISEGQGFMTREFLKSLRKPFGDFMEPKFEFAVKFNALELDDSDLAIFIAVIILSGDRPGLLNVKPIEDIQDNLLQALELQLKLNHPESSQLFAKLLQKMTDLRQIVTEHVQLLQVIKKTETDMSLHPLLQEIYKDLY
# Chain of Peroxisome proliferator-activated receptor gamma/Nuclear receptor coactivator 3 (Q9Y6Q9 whole entry, further chain): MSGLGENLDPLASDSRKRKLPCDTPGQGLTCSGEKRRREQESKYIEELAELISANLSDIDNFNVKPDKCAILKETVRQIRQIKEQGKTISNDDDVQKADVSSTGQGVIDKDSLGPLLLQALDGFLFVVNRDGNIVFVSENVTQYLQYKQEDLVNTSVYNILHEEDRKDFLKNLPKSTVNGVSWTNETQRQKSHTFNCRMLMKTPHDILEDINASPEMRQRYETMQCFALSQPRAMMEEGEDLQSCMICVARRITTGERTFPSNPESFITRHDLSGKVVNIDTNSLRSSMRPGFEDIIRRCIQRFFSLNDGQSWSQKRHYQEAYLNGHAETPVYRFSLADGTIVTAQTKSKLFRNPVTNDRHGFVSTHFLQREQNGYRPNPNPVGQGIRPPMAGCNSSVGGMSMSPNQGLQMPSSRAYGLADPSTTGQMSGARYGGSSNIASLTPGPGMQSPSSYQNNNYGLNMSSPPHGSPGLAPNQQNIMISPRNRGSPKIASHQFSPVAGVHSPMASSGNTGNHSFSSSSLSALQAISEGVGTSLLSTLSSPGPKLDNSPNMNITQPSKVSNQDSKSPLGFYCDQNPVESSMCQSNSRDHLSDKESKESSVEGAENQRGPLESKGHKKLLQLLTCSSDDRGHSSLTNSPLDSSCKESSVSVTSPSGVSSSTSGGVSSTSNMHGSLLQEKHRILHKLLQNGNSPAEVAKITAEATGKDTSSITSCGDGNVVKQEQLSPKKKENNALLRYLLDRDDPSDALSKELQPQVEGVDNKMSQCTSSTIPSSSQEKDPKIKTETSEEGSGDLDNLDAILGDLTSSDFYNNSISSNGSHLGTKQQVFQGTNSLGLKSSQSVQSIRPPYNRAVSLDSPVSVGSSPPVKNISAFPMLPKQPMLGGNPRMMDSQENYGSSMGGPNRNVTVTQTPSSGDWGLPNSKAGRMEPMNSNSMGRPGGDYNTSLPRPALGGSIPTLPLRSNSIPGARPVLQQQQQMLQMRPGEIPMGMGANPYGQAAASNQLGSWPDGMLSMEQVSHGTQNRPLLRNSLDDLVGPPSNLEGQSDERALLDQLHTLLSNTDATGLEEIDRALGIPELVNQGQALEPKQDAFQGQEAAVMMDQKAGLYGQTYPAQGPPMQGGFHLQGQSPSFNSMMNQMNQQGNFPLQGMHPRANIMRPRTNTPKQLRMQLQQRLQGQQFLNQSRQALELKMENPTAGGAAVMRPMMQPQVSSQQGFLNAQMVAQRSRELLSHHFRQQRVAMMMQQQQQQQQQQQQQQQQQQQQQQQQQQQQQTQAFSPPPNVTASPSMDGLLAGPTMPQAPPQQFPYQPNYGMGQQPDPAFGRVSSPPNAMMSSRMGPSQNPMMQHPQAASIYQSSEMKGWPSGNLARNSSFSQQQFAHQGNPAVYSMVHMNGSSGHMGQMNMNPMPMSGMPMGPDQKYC
# Chain of Peroxisome proliferator-activated receptor gamma/Nuclear receptor coactivator 1 (P37231 whole entry): as the sequence (P37231 whole entry) above
# Chain of Peroxisome proliferator-activated receptor gamma/Nuclear receptor coactivator 1 (Q15788 whole entry, further chain): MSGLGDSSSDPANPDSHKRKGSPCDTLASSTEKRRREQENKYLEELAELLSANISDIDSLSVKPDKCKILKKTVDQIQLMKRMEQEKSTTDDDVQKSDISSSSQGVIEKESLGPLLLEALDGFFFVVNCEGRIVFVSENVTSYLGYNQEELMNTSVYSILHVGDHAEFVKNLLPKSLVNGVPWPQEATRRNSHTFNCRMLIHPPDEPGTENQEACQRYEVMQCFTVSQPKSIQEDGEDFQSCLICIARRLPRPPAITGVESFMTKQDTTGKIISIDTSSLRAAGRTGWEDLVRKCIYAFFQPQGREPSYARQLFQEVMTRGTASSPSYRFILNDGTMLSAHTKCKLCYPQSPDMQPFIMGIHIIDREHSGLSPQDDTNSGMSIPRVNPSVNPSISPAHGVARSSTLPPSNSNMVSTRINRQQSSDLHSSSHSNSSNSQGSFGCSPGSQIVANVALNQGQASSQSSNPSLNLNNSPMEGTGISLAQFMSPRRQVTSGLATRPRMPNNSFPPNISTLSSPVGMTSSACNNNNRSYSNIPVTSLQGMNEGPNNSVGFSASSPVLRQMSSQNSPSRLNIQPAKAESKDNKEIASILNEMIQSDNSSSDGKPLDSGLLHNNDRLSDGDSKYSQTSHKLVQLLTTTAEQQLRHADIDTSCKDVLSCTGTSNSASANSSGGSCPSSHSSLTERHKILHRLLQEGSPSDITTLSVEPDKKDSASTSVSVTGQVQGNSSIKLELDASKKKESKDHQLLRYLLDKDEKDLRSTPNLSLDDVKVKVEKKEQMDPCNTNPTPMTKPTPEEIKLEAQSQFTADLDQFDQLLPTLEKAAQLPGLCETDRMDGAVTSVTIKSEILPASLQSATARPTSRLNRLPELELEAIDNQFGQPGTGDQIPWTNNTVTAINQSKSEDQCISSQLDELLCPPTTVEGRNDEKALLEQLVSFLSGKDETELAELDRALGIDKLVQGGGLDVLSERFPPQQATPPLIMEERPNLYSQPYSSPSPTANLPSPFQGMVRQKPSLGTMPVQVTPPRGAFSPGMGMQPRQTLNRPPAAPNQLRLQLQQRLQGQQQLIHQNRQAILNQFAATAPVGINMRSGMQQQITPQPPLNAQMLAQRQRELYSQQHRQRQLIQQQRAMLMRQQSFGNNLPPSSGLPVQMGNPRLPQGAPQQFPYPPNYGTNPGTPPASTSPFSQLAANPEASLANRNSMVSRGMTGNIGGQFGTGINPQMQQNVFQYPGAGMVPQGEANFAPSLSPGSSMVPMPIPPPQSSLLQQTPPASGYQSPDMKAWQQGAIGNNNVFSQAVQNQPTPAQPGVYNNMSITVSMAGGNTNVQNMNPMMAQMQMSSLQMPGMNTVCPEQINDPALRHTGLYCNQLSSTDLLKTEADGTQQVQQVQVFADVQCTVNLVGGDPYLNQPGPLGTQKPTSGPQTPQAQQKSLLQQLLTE
SMILES,EC50 [1],EC50 [2],EC50 [3],EC50 [4],EC50 [5],EC50 [6],other results
CCCc1ccc2oc(C(=O)NCCCN3CCOCC3)c(C)c2c1,30.8 µM (active),18.7 µM (active),53.7 µM (active),,,,
N#Cc1c(NC(=O)C2CC2)sc2c1CCCCC2,81.4 µM (active),34.7 µM (active),> 120 µM (not active),,,,
C#CCn1/c(=N/C(=O)c2ccc(Cl)s2)sc2cccc(OC)c21,,,,12.8 µM (not active),18.4 µM (not active),21.5 µM (not active),CC50 [7]: 19.1 µM (active)
c1ccc(SCc2nc(-c3ccncc3)no2)cc1,25.8 µM (active),14.8 µM (active),10.1 µM (active),,,,
COc1ccc(-c2noc(Cc3ccccc3OC)n2)cc1,,,,> 79.4 µM (not active),> 79.4 µM (not active),> 79.4 µM (not active),
CC(C)(C)c1ccc(-c2nnc3sc(-c4ccncc4)nn23)cc1,,,,> 79.4 µM (not active),> 79.4 µM (not active),> 79.4 µM (not active),
CCCOc1cccc(-c2nc3ccccc3c(=O)o2)c1,16.3 µM (active),26.3 µM (active),,,,,AC50 [8]: 9.46 µM (active); EC50 [9]: 6.81 µM (active)
CCN1CCc2c(sc(NC(=O)c3ccc4ccccc4c3)c2C(N)=O)C1,7.69 µM (active),36.5 µM (active),> 60 µM (not active),,,,EC50 [10]: 45.5 µM (active); EC50 [11]: > 300 µM (inconclusive); EC50 [12]: 16.8 µM (active); EC50 [13]: 2.47 µM (active)
CC(C)(C)NC(=O)CSc1nc(O)cc(=O)n1-c1ccccc1F,,,,> 79.4 µM (not active),> 79.4 µM (not active),> 79.4 µM (not active),
COc1ccc(-c2nnc(Sc3nc4ccccc4o3)c3ccccc23)cc1,,,,,,,AC50 [8]: 3.8 µM (active); EC50 [14]: 16.2 µM (active); EC50 [15]: 18.3 µM (active); EC50 [9]: 0.703 µM (active)
Cc1ccc(NC(=O)c2cn(-c3cccc(C)n3)cn2)cc1,0.269 µM (active),0.157 µM (active),> 120 µM (not active),,,,
O=C(c1cccc(C(F)(F)F)c1)N1CCN(c2cc(O)nnc2-c2ccccc2)CC1,,,,> 79.4 µM (not active),> 79.4 µM (not active),> 79.4 µM (not active),
